Test results from US7517858B1, “Prodrugs of pharmaceuticals with improved bioavailability” (The Regents of the University of California, priority 1995, dated 2009).
Entries after “also recorded” stand apart in the source; their conditions may differ.

Tests used:
[1] = tested on: Rauscher leukemia virus complex (RLV); assay: Treatment of Rauscher leukemia virus-infected mice (spleen weight); assay type: in vivo; conditions: for effective doses (ED50): RLV-infected BALB/C mice, 21 days oral, prodrug by gavage once a day, AZT in drinking water, spleen weight day 23
Excerpt: 1-O-Octadecyl-sn-glycero-3-phospho-AZT was compared to free AZT in treating mice infected with Rauscher murine leukemia virus (RLV). RLV is a murine retrovirus, and RLV-infected mice are useful as a model system for evaluating therapeutic effectiveness of candidate anti-AIDS drugs against retrovirus induced disease in vivo. […] Effective antiviral agents inhibit the splenomegaly, and a reduction in organ weight correlates with the elimination of virus (Ruprecht, R., et al., Nature 323:467-469 (1986)). […] The closest practical approach to optimum administration is the intake of AZT in drinking water.
Female BALB/C mice were infected with 1×10^4 plaque-forming units (PFU) of Rauscher leukemia virus complex (RLV) on day 0. Control animals were injected with saline. Beginning on day 2, groups of the infected mice as indicated in FIG. 1 were treated with AZT at doses from about 11.0 mg/kg/day to 15.0 mg/kg/day for 21 days either by offering AZT in drinking water or by gavaging with 1-O-octadecyl-sn-glycero-3-P-AZT once a day. On day 23 post-inoculation, the mice in both treatment protocols were sacrificed, and the spleen weights of the animals were determined. The mean spleen weights, indicating relative level of virus infection, for each dose level in the two protocols, are represented in the bar graphs of FIG. 1.

[2] = Tissue distribution 24 h after oral administration of 14C-PFA lipid prodrugs to mice; assay type: in vivo; conditions: oral gavage 20 mg/kg in liposomes, 14C radioactivity (FIG. 2)
Protocol: 1-O-Octadecyl-sn-glycero-3-PFA[^14C] and 1-O-octadecyl-2-O-methyl-sn-glycero-3-PFA[^14C] (30 microcuries/micromole) were dried with dioleoylphosphatidylcholine/cholesterol/drug in a molar ratio of 60/30/10 in a nitrogen stream, lyophilized overnight and isotonic sorbitol was added. After vortexing and warming, the vessel was sonicated at maximum output in a Heat Systems cup and horn sonicator for one hour. The resulting liposome preparation was filtered through a 0.2 micron filter and administered to mice by oral gavage in a dose of 20 mg/kg of the respective PFA lipid prodrugs. After 24 hours the animals were sacrificed and tissues removed, blotted dry, weighed and homogenized. Aliquots were counted and the amount of radioactivity determined. The results are expressed as nanomoles of lipid prodrug PFA[^14C] per gm tissue.

[3] = tested on: human cytomegalovirus (HCMV); assay: Human cytomegalovirus (HCMV) antiviral susceptibility assay (HCMV DNA hybridization in MRC-5 cells); assay type: cell-based; conditions: for IC50: HCMV-infected MRC-5 human lung fibroblasts, HCMV DNA after 5 days, mean ± SD (n); for antiviral activity compared in words: comparison with PFA / B-PFA
Protocol: Subconfluent MRC-5 cells in 24-well culture dishes were pretreated for 24 hours with various concentrations of drug in MEM medium containing 2% FBS and antibiotics. The media was removed and virus added at a dilution that will result in a 3-4+ cytopathic effect (CPE) in the no-drug wells in five days. This was absorbed for 1 hour at 37° C., aspirated and replaced with the drug dilutions. After five days of incubation HCMV DNA was quantified in triplicate by nucleic acid hybridization using a CMV AntiviraL Susceptibility Test Kit from Diagnostic Hybrids, Inc. (Athens, Ohio). The media was removed and cells lysed according to the manufacturer's instructions.
After absorption of the lysate, the Hybriwix™ filters were hybridized overnight at 60° C. The Hybriwix™ were washed for 30 minutes at 73° C. and counted in a gamma counter. The results are expressed as HCMV DNA as a percentage of the untreated HCMV-infected control cells.

[4] = tested on: human immunodeficiency virus-1; assay: Plaque reduction assay for HIV-1 replication in HT4-6C cells; assay type: cell-based; conditions: comparison with PFA / B-PFA / BB-PFA
Protocol: HT4-6C cells and plaque reduction assay, CD4-expressing HeLa cells, HT4-6C cells (Chesebro, B. and K. Wehrly (1988) J. Virol. 62:3779-3788), were obtained from Bruce Chesebro, Hamilton, Mont. The effect of antiviral compounds on HIV replication was measured by a plaque reduction assay. Briefly, monolayers of HT4-6C cells were infected with 100 to 300 PFU of virus per well in 24-well microdilution plates. Various concentrations of drug were added to the culture medium, Dulbecco's Modified Eagle Medium containing 5% fetal bovine serum and antibiotics, as noted above. After 3 days at 37° C., the monolayers were fixed with 10% formaldehyde solution in phosphate-buffered saline and stained with 0.25% crystal violet to visualize virus plaques (Larder, B. et al. (1989) Science 243:1731-1734). Antiviral activity was assessed as the percentage of control Plaques measured in drug-treated samples.

HSV-1 virus = assay: HSV antiviral susceptibility assay (HSV DNA hybridization in MRC-5 cells); assay type: cell-based, human herpes simplex virus 1; conditions: comparison with PFA / B-PFA
Protocol: Subconfluent MRC-5 cells in 24-well culture dishes were inoculated by removing the media and adding HSV-1 virus at a dilution that will result in a 3-4+CPE in the no-drug well in 20-24 hours. This was absorbed for 1 hour at 37° C., aspirated and replaced with various concentrations of drugs in MEM medium containing 2% FBS and antibiotics. After approximately 24 hours of incubation, HSV DNA was quantified in triplicate by nucleic acid hybridization using a HSV Antiviral Susceptibility Test Kit from Diagnostic Hybrids, Inc. (Athens, Ohio). The media was removed and cells lysed according to the manufacturer's instructions. After absorption of the lysate, the Hybriwix™ filters were hybridized overnight at 60° C. The Hybriwix™ were washed for 30 minutes at 73° C. and counted in a gamma counter. The results are expressed as a percentage of the untreated HSV-infected control cells.

With `CCCCCCCCCCCCCCCCCCOC[C@@H](O)COP(=O)(O)OC[C@H]1O[C@@H](n2cc(C)c(=O)[nH]c2=O)C[C@@H]1N=[N+]=[N-]` [1-O-octadecyl-sn-glycero-3-P-AZT, 1-O-Octadecyl-sn-glycero-3-phospho-3′-azido-3′-deoxythymidine] the “effective doses (ED50)” value [1] was “comparable” and the “inhibition of splenomegaly, effectiveness” value ([1]; RLV-infected mice, once a day gavage versus free AZT in drinking water (FIG. 1)) was “as effective, in comparable doses, as virtually continuous free AZT administration”.
For `Cc1cn([C@H]2C[C@H](N=[N+]=[N-])[C@@H](CO)O2)c(=O)[nH]c1=O` [AZT, 3′-azido-3′-deoxythymidine, reference compound], the “effective doses (ED50)” value [1] was “comparable”.
For `CCCCCCCCCCCCCCCCCCOC[C@@H](O)COP(=O)(O)C(=O)O` [B-PFA, 1-O-octadecyl-sn-glycero-3-phosphonoformate], the “tissue levels of drug” value [2] was “lower levels of drug in most tissues studied including liver, spleen, jejunum and ileum”.
With `CCCCCCCCCCCCCCCCCCOC[C@H](COP(=O)(O)C(=O)O)OCc1ccccc1` [BB-PFA, 1-O-octadecyl-2-O-benzyl-sn-glycero-3-phosphonoformate] the IC50 [3] was 0.54 ± 0.65 µM and the “antiviral activity compared in words” value ([3]; HCMV) was “equivalent in antiviral activity to B-PFA”.
With `CCCCCCCCCCCCCCCCCCOC[C@H](COP(=O)(O)C(=O)O)OC` [MB-PFA, 1-O-octadecyl-2-O-methyl-sn-glycero-3-phosphonoformate] the “antiviral activity compared in words” value ([3]; HCMV) was “equivalent in antiviral activity to B-PFA”, the “antiviral activity compared in words” value [4] was “significantly more active than B-PFA and BB-PFA; also recorded: more active than B-PFA to a statistically significant degree” and the “antiviral activity compared in words” value (HSV-1 virus) was “more active than B-PFA”. The “drug levels in the small intestine” value [2] was “lower in the small intestine” and the “tissue levels of drug” value [2] was “higher tissue levels of drug were observed in liver, spleen, lung, brain, kidney and lymph node”.
With `CCCCCCCCCCCCCCCCCCOCC(COP(=O)(O)C(=O)O)(OC)OC` [ODDMOP-PFA, 1-O-octadecyl-2,2-dimethoxypropane-3-phosphonoformate] the IC50 [3] was 0.22 ± 0.14 µM, the “antiviral activity compared in words” value ([3]; HCMV) was “substantially more active” and the “FOLD INCREASE IN ACTIVITY” value ([3]; versus PFA, HCMV) was 209 fold.
